{"source": "paper PMC6394990", "about": "“Detailed characterization of the solution kinetics and thermodynamics of biotin, biocytin and HABA binding to avidin and streptavidin” (PLoS ONE, 2019)", "origin": "cited, not measured here", "target": "T1, streptavidin (SAV) (Streptomyces avidinii, UniProt P22629)", "T1 construct": "purchased Sigma Aldrich (St. Louis, MO)", "T1 sequence (P22629 25-183)": "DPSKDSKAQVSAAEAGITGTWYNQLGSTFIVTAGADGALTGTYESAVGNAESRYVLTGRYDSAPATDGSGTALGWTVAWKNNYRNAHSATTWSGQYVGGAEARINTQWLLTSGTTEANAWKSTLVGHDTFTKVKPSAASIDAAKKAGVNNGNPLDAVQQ", "settings": "SAV-B7, cited from earlier work", "note": "Where “and” joins values, the source holds several entries; their conditions need not be identical. Equal entries are not always repeated. Where two headings read alike, the source gives them in different places."}
{"compound": "O=C(O)CCCC[C@@H]1SC[C@@H]2NC(=O)N[C@@H]21", "note": "[B7, d-biotin]", "values": [{"measurement": "ΔH°rxn", "setting": "ref 19", "value": "-26.7 19 kcal/mol"}, {"measurement": "ΔH°rxn", "setting": "ref 19, listed as B", "value": "-26.7 6 kcal/mol"}, {"measurement": "ΔG°rxn", "setting": "ref 39", "value": "-18.1 kcal/mol and -18.1 36 kcal/mol"}, {"measurement": "ΔH°rxn", "setting": "ref 39", "value": "-24.5 kcal/mol and -24.5 36 kcal/mol"}, {"measurement": "ΔS°rxn", "setting": "ref 39", "value": "-21.0 [39] cal/mol°K and -21.0 36 cal/mol°K"}, {"measurement": "ΔG°rxn", "setting": "ref 39, listed as B", "value": "-18.1 20 kcal/mol"}, {"measurement": "ΔH°rxn", "setting": "ref 39, listed as B", "value": "-24.5 20 kcal/mol"}, {"measurement": "ΔS°rxn", "setting": "ref 39, listed as B", "value": "-21.0 20 cal/mol°K"}, {"measurement": "ΔH°rxn", "setting": "ref 79", "value": "-23.0 kcal/mol and -23.0 72 kcal/mol"}, {"measurement": "ΔH°rxn", "setting": "ref 79, listed as B", "value": "-23.0 50 kcal/mol"}, {"measurement": "ΔH°rxn", "setting": "ref 80", "value": "-24.9 ± 0.4 kcal/mol and -24.9 ± 0.4 80 kcal/mol"}, {"measurement": "ΔH°rxn", "setting": "ref 80, listed as B", "value": "-24.9 ± 0.4 53 kcal/mol"}, {"measurement": "ΔG°rxn", "setting": "ref 83, 84", "value": "-18.3 kcal/mol and -18.3 83,84 kcal/mol"}, {"measurement": "ΔG°rxn", "setting": "ref 83, 84, listed as B", "value": "-18.3 54, 57 kcal/mol"}]}
